23 molecules from ChEMBL document CHEMBL1201862, “PubChem BioAssay data set” (2004) can be followed below.

Series [1] deals with T1, Replicative DNA helicase DnaB (Mycobacterium tuberculosis, UniProt P9WMR3).
T1 sequence (P9WMR3 whole entry): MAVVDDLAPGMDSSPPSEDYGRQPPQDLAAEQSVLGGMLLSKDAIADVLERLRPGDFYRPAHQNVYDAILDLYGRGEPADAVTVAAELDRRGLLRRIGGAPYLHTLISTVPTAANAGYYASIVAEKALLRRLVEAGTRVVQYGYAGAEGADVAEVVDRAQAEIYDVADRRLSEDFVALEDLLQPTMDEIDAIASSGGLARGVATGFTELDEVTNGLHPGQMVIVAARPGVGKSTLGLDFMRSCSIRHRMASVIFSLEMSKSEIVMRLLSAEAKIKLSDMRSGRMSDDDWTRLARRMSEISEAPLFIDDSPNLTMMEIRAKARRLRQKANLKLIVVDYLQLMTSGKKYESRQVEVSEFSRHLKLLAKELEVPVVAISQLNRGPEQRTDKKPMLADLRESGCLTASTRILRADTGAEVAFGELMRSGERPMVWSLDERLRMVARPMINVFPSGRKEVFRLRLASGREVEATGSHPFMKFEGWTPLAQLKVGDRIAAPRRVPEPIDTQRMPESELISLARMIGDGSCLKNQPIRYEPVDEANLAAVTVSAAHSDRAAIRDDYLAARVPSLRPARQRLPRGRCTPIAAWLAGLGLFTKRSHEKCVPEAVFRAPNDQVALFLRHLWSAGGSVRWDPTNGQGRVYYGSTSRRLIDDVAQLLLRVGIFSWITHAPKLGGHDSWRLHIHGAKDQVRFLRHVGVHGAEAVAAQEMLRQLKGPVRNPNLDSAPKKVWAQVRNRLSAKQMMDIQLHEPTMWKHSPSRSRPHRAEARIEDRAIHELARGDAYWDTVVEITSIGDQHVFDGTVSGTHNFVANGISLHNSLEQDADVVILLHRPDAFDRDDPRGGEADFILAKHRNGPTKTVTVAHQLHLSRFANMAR
The series can be described thus: DnaB intein splicing inhibitors, dose response, biochemical, cell-free fluorescence (AID 449749). It counts as functional.

The target in series [2] is T2, Protein RecA (Mycobacterium tuberculosis, UniProt P9WHJ3).
T2 sequence (P9WHJ3 whole entry): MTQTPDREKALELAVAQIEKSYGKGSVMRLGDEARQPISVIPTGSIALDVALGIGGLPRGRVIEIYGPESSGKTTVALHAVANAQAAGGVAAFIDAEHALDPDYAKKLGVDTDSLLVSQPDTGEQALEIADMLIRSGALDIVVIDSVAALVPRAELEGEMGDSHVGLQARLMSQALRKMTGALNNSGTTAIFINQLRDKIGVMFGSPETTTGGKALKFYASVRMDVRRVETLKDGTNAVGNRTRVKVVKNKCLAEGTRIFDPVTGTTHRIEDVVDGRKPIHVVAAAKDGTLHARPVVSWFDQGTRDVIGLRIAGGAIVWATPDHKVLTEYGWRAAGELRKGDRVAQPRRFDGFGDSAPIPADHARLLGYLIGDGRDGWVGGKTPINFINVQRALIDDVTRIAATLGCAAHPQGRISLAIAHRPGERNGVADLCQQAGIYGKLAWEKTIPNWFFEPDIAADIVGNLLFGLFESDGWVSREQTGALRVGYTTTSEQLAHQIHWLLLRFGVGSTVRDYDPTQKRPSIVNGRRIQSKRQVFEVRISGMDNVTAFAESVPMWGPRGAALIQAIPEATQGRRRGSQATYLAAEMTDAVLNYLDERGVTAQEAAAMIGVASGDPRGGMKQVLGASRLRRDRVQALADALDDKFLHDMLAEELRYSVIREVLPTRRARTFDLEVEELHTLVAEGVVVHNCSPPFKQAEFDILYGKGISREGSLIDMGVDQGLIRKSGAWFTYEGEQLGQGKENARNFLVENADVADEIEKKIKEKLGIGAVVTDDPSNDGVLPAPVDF
Put plainly: Fluorescence Cell-Free Homogeneous Dose Retest to Identify Inhibitors of RecA-Intein Splicing Activity. [Related pubchem assays (depositor defined):AID2097, AID2223, AID489010, AID492950]. It counts as functional.

Series [3] deals with T3, Cytochrome P450 1A2 (Homo sapiens, UniProt P05177).
T3 sequence (P05177 whole entry): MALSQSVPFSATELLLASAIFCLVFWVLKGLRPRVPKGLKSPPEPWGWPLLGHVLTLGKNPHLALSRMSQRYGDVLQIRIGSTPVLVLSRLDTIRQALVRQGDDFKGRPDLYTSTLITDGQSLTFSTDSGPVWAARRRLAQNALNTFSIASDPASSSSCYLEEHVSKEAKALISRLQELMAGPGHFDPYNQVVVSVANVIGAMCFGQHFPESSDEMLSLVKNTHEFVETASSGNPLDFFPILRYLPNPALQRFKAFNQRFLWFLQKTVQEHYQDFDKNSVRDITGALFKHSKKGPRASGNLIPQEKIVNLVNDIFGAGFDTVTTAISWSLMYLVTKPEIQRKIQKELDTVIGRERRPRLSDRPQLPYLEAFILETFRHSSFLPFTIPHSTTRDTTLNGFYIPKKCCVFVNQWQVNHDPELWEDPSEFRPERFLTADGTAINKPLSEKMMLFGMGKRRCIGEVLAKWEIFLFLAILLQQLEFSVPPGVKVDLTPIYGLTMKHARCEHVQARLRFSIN

The target of series [4] is Paired box protein Pax-8 (Homo sapiens, UniProt Q06710). The series can be described thus: PAX8 transcriptional activity inhibition in RMG-I – RMG-I cells, luciferase, cherry-pick, dose response (AID 687027).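 Note: luciferase reporter driven by Pax8 target thyroperoxidase promoter measured by SteadyGlo luminescence.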 In kind it is functional, cell-based.
Series [5] deals with Cytochrome P450 3A4 (Homo sapiens, UniProt P08684).
Series [6] deals with Cytochrome P450 2C19 (Homo sapiens, UniProt P33261). The series can be described thus: Cytochrome panel assay with activity outcomes. Panel member name: p450-cyp2c19 Compounds with AC50 equal or less than 10 uM are considered active. It counts as functional.
Series [7] addresses Cytochrome P450 2C9 (Homo sapiens, UniProt P11712).
Series [8] is described as follows: Luminescence Cell-Based Dose Retest to Confirm Inhibitors of Cancer Stem Cells. [Related pubchem assays (depositor defined):AID2717, AID2721]. As to conditions: Homo sapiens. It counts as functional.

Calls of active or inactive are those of the source.

Paired box protein Pax-8, sequence (Q06710 whole entry): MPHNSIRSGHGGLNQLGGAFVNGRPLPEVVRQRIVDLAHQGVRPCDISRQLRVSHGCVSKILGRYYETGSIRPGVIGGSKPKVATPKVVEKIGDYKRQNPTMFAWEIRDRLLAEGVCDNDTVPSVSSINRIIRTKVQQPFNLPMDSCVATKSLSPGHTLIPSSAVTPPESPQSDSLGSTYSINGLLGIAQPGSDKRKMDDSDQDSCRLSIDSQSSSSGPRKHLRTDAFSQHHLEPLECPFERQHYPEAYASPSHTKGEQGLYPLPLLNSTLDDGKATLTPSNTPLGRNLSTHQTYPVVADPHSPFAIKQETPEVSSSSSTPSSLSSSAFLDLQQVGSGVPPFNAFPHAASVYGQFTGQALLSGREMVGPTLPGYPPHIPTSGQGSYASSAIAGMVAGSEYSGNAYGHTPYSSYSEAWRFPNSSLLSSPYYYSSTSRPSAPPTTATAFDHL
Cytochrome P450 2C9, sequence (P11712 whole entry): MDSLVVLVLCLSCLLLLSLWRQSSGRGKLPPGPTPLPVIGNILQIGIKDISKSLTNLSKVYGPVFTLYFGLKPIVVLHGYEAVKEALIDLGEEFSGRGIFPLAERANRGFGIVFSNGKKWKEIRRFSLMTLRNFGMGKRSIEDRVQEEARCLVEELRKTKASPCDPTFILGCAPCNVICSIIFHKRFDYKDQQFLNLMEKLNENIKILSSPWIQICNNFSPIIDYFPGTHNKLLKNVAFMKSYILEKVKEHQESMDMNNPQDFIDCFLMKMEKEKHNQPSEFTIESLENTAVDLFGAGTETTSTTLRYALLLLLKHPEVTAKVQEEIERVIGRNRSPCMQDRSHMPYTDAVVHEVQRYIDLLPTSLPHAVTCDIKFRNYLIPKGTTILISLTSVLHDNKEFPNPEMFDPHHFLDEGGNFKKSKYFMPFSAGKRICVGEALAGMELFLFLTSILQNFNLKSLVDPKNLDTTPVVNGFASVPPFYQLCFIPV
Cytochrome P450 3A4, sequence (P08684 whole entry): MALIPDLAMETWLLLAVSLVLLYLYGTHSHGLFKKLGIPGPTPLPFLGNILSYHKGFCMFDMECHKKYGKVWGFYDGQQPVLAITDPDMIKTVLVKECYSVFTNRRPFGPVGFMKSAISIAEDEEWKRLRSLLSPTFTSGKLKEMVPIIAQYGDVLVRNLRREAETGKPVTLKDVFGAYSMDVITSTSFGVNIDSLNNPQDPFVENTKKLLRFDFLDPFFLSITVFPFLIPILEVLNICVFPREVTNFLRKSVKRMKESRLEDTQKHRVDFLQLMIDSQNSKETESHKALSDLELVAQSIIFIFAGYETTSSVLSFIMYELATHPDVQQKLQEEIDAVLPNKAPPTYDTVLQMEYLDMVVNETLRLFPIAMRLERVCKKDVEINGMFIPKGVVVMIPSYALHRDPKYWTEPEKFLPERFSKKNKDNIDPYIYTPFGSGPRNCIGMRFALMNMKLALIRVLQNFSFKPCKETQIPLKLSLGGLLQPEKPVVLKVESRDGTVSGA
Cytochrome P450 2C19, sequence (P33261 whole entry): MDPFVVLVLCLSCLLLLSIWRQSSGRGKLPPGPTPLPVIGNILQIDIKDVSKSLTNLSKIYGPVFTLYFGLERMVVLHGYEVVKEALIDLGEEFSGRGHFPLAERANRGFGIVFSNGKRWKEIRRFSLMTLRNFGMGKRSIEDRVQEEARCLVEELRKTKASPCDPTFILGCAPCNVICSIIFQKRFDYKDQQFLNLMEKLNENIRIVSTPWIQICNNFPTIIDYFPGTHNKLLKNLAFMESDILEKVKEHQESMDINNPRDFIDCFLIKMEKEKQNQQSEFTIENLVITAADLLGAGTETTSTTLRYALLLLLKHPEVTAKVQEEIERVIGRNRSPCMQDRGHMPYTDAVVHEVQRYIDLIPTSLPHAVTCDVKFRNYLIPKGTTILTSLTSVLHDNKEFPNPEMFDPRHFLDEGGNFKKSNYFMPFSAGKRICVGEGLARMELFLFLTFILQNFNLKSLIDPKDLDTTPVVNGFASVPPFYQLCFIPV

Take `O=C(CCCN1C(=O)/C(=C\c2ccccc2)SC1=S)Nc1ccc(O)cc1C(=O)O`: the AC50 (in general, the midpoint of the concentration-response curve, whichever way the signal moves) in series [1] is 15.4 µM (active). The EC50 – broadly, the concentration giving half of the maximal effect – in series [2] was 15.1 µM (active).
As for `CN1C(=O)COc2c(C(=O)N[C@@H]3CN4CCC3CC4)cc(Cl)cc21`, in series [3], the AC50 is 39.8 µM (inconclusive).
As for `CCC#CCOCC(=S)Nc1ccccc1`, the AC50 in series [3] was 15.8 µM (inconclusive).
Take `Cc1ccc(S(=O)(=O)N2CCCCC2)cc1NC(=O)Cc1c[nH]c2ccccc12`: the AC50 in series [4] was 19.5 µM (active).
For the molecule `CCN(CC)C[C@@H]1CCCCN1CC(=O)N1c2ccccc2C(=O)Nc2cccnc21`, the AC50 in series [3] is 31.6 µM (inconclusive).
On to `N[C@@H](COP(=O)(O)O)C(=O)O` [DEXFOSFOSERINE], for which the AC50 in series [5] is 0.794 µM (inconclusive); in series [3], 25.1 µM (inconclusive); in series [6], “inconclusive”.
Turning to `CCOC(=O)c1nc(O)c2ccccc2c1O`, the AC50 in series [1] was > 380 µM (inactive). Besides, in series [2], the EC50 was 5.23 µM (active).
As for `COc1ccc(NC(=O)Nc2ccc3c(c2)C(=O)N([C@@H](C)CO)C[C@@H](C)[C@@H](CN(C)Cc2ccc(C(F)(F)F)cc2)O3)cc1`, in series [4], the AC50 is 13.9 µM (active).
For the molecule `COc1cccc(Nc2ncc3nc(-c4ccccc4)c(=O)n(Cc4cccs4)c3n2)c1`, the AC50 in series [3] was 20 µM (inconclusive).
As to `Cc1n[nH]c2c1C(c1ccc(Cl)cc1)C(C#N)=C(N)O2` (configuration not stated), the AC50 in series [1] was 9.8 µM (active). In addition, in series [2], the EC50 was 6.1 µM (active).
For `COC(=O)[C@@]12C[C@@H](CC(=O)N3CCN(C(=O)c4ccco4)CC3)C(=O)N(Cc3ccccc3)C1=CCC(C)(C)C2`, the AC50 in series [4] was 1.81 µM (active).
With `COCC(=O)O[C@]1(CCN(C)CCCc2nc3ccccc3[nH]2)CCc2cc(F)ccc2[C@@H]1C(C)C` [MIBEFRADIL], the AC50 in series [3] is 31.6 µM (inconclusive).
For `O=C(O)c1cc2cc(OCc3ccccc3)ccc2[nH]1`, the AC50 is 25.1 µM (inconclusive) in series [7] and 6.31 µM (inconclusive) in series [3].
On to `COC(=O)CN1C(=O)S/C(=C/c2ccc(N3CCCCC3)o2)C1=O`, for which the AC50 in series [7] is 5.62 µM (inconclusive); in series [5], 15.8 µM (inconclusive); in series [6] (read-out: AC50), 5.62 µM (inconclusive).
Take `COCCN(C(=O)C(C)C)c1nnc(-c2ccc(C(C)(C)C)cc2)s1`: in series [8], the AC50 is 2.42 µM (active).
For `CCC(=O)OCc1c(C(F)(F)F)nn(C)c1Sc1ccc(F)cc1`, the results for the AC50 in series [5] and in series [3] were 25.1 µM (inconclusive) and 12.6 µM (inconclusive), respectively.
Take `CCC(C)(C)n1nnnc1C(c1cc2cc3c(cc2nc1O)OCO3)N1CCCCC1` (configuration not stated): the AC50 in series [7] is 0.02 µM (inconclusive); in series [3] it was 17.8 µM (inconclusive).
Turning to `O=[N+]([O-])c1ccc(N/N=C/c2sc(N3CCOCC3)nc2-c2ccccc2)c(S(=O)(=O)Nc2ccc(Cl)cc2)c1`, the AC50 in series [4] was 1.99 µM (active).
Consider `COc1ccc(Br)cc1[C@H]1[C@H]2C=CC[C@@H](C)[C@@H]2C(=O)N1Cc1ccccc1`, for which the AC50 in series [1] is 2.46 µM (active). The EC50 in series [2] is 163 µM (active).
With `CCN(C(=O)Cn1c(=O)oc2ccccc21)c1cccc(C(F)(F)F)c1`, the figures for the AC50 in series [5] and in series [3] were 7.08 µM (inconclusive) and 39.8 µM (inconclusive), respectively.
Regarding `COc1cc(C(c2c(C)n[nH]c2O)c2c(C)n[nH]c2O)cc(Br)c1OC`, the AC50 in series [1] was 0.756 µM (active). In series [2], the EC50 was 0.274 µM (active).
As to `CC(C)c1n[nH]c2c1C(c1cccc(OC(=O)N3CCOCC3)c1)C(C#N)=C(N)O2` (configuration not stated), the AC50 in series [1] is 33.4 µM (active). Besides, the EC50 in series [2] is 5.8 µM (active).
Turning to `CC1(C)Cc2ccccc2C(/C=C(\O)c2ccccc2)=N1`, the concentration at half-maximal activity (AC50) in series [8] is 1.97 µM (active).
